The target of assay [1] is Monoamine transporters; serotonin & dopamine (Rattus norvegicus) (UniProt P31652+P23977). As to the kind of experiment: Selectivity expressed as ratio of affinity for SERT/DAT. The assay is classed as protein assay.
Assay [2] deals with Sodium-dependent dopamine transporter (Rattus norvegicus, UniProt P23977). Nature of the assay: Binding affinity for dopamine transporter (DAT).
Assay [3] has as its target Sodium-dependent serotonin transporter (Rattus norvegicus, UniProt P31652). As to the kind of experiment: Binding affinity for serotonin transporter (SERT).

Sequence of Sodium-dependent dopamine transporter (P23977 whole entry): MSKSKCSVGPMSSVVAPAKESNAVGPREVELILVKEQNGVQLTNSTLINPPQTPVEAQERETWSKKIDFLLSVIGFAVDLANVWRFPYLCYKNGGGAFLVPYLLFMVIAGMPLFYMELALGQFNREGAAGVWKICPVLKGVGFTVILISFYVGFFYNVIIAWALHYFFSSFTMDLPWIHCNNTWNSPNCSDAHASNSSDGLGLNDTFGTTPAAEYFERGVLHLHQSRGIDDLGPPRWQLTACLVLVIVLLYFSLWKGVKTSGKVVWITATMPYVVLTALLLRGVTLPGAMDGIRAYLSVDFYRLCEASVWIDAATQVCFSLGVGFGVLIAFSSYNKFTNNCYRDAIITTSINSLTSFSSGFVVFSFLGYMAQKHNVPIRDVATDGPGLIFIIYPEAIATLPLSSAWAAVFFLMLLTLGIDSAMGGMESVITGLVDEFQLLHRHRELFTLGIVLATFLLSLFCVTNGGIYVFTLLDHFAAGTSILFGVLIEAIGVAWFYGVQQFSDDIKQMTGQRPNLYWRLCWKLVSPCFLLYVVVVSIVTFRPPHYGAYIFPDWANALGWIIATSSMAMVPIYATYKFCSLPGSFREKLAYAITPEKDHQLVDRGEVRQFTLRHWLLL
Sequence of Monoamine transporters; serotonin & dopamine (Rattus norvegicus) (P23977 whole entry, looked up): as the sequence (P23977 whole entry) above
Sequence of Monoamine transporters; serotonin & dopamine (Rattus norvegicus) (P31652 whole entry, looked up): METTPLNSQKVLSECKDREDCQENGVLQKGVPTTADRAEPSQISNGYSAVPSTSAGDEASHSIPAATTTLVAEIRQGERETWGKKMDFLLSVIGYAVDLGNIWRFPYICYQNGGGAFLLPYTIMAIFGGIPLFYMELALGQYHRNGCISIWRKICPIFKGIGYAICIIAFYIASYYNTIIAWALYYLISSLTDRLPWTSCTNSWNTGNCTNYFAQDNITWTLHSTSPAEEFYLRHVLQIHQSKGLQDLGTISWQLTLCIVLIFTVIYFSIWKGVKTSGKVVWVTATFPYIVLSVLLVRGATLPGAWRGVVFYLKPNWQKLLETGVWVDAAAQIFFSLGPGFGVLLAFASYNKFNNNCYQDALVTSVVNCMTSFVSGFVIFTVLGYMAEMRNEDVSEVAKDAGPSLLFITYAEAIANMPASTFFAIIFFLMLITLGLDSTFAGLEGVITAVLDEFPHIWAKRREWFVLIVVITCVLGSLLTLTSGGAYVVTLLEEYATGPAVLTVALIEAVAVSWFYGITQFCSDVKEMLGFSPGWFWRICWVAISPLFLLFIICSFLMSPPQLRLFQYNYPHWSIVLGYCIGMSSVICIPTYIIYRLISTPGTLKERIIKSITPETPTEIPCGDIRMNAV
Sequence of Sodium-dependent serotonin transporter (P31652 whole entry): as the sequence (P31652 whole entry, looked up) above

Consider `O[C@H](Cc1ccccc1)CN1CCN(CCOC(c2ccc(F)cc2)c2ccc(F)cc2)CC1`, for which the Ratio in assay [1] worked out at 14.

By Ki is commonly meant the dissociation constant of the complex between target and ligand, obtained from inhibition or displacement. A low value points to higher affinity. Regarding `C[C@H](O)CN1CCN(CCOC(c2ccccc2)c2ccccc2)CC1`, the Ki came to 48 nM in assay [2] and 10400 nM in assay [3]. The Ratio in assay [1] is 217.

With `C[C@@H](O)CN1CCN(CCOC(c2ccccc2)c2ccccc2)CC1`, the Ki came out at 44 nM in assay [2] and 12900 nM in assay [3]. Further, the Ratio in assay [1] is 293.

In the case of `C[C@@](O)(CN1CCN(CCOC(c2ccc(F)cc2)c2ccc(F)cc2)CC1)c1ccccc1`, the Ki worked out at 5.6 nM in assay [2] and 281 nM in assay [3]. In addition, the Ratio in assay [1] turned out to be 50.

In the case of `OC(Cc1ccccc1)CN1CCN(CCOC(c2ccc(F)cc2)c2ccc(F)cc2)CC1` (racemic), in assay [1], the Ratio was 54.

Take `CCCN1CCN(CCOC(c2ccc(F)cc2)c2ccc(F)cc2)CC1`: the results for the Ki in assay [2] and in assay [3] were 40 nM and 888 nM, respectively. Further, the Ratio in assay [1] stood at 22.

Turning to `CC(O)(CN1CCN(CCOC(c2ccc(F)cc2)c2ccc(F)cc2)CC1)c1ccccc1` (racemic), the Ki in assay [2] is 20 nM; in assay [3], 298 nM. Also, the Ratio in assay [1] came to 15.

For the molecule `C[C@@H](O)CN1CCN(CCOC(c2ccc(F)cc2)c2ccc(F)cc2)CC1`, the Ki came to 76 nM in assay [2] and 588 nM in assay [3]. In addition, the Ratio in assay [1] is 8.

As to `C[C@](O)(CN1CCN(CCOC(c2ccc(F)cc2)c2ccc(F)cc2)CC1)c1ccccc1`, the results for the Ki in assay [2] and in assay [3] were 140 nM and 520 nM, respectively. Besides, in assay [1], the Ratio worked out at 4.

Turning to `C[C@@H](O)[C@H](c1ccccc1)N1CCN(CCOC(c2ccc(F)cc2)c2ccc(F)cc2)CC1`, the Ki in assay [2] worked out at 13 nM; in assay [3], 565 nM. In assay [1], the Ratio was 43.

Turning to `C=CCN1CCN(CCOC(c2ccc(F)cc2)c2ccc(F)cc2)CC1`, the inhibition constant (Ki) was found to be 65 nM in assay [2] and 1650 nM in assay [3]. In addition, in assay [1], the Ratio came out at 25.

Consider `C[C@H](O)[C@@H](c1ccccc1)N1CCN(CCOC(c2ccc(F)cc2)c2ccc(F)cc2)CC1`, for which the Ki in assay [2] is 36 nM; in assay [3], 583 nM. Besides, the Ratio in assay [1] is 16.

Consider `C[C@H](O)CN1CCN(CCOC(c2ccc(F)cc2)c2ccc(F)cc2)CC1`, for which the Ki in assay [2] turned out to be 23 nM; in assay [3], 981 nM. Moreover, in assay [1], the Ratio was 43.

As to `O[C@@H](Cc1ccccc1)CN1CCN(CCOC(c2ccc(F)cc2)c2ccc(F)cc2)CC1`, the Ratio in assay [1] is 307.

On to `O[C@@H](Cc1ccccc1)CN1CCN(CCOC(c2ccccc2)c2ccccc2)CC1`, for which, in assay [1], the Ratio is 939.

Turning to `O[C@H](Cc1ccccc1)CN1CCN(CCOC(c2ccccc2)c2ccccc2)CC1`, the Ratio in assay [1] worked out at 73.

On to `CCN1CCN(CCOC(c2ccc(F)cc2)c2ccc(F)cc2)CC1`, for which the Ki in assay [2] amounted to 34 nM; in assay [3] it was 2090 nM. Besides, the Ratio in assay [1] was 61.

These data come from ChEMBL document CHEMBL1136570, “Synthesis and dopamine transporter affinity of chiral 1-[2-[bis(4-fluorophenyl)methoxy]ethyl]-4-(2-hydroxypropyl)piperazines as potential cocaine abuse therapeutic agents” (Bioorg Med Chem Lett, 2003).
